Measurements published in patent US12018021B2 (UCB Biopharma SRL, priority 2018, dated 2024).

molecular target: IgE-Tb / sFcεRIα-Y131A-AF488 (Homo sapiens, UniProt P01854, N146Q/N252Q); assay: IgE-Tb / sFcεRIα-Y131A-AF488 FRET assay (protocol for examples 234 to 501); format: binding; conditions: examples 234 to 501: compound with IgE-Tb 30 minutes before sFcεRIα-Y131A-AF488, incubated 18 hours at room temperature; read-out: Y131A FRET IC50 range
Procedure, shortened: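 Read-out is the 520/490 nm emission ratio (337 nm excitation) after 18 h at room temperature, background subtracted, fitted four-parameter for IC50. Final reagents: 5 nM IgE-Tb, preincubated 30 min with compound (top typically 10 μM, 2% DMSO, 3-fold 10-point), plus 25 nM sFcεRIα-Y131A-AF488.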

Chain of IgE-Tb / sFcεRIα-Y131A-AF488 (P01854 whole entry N146Q/N252Q): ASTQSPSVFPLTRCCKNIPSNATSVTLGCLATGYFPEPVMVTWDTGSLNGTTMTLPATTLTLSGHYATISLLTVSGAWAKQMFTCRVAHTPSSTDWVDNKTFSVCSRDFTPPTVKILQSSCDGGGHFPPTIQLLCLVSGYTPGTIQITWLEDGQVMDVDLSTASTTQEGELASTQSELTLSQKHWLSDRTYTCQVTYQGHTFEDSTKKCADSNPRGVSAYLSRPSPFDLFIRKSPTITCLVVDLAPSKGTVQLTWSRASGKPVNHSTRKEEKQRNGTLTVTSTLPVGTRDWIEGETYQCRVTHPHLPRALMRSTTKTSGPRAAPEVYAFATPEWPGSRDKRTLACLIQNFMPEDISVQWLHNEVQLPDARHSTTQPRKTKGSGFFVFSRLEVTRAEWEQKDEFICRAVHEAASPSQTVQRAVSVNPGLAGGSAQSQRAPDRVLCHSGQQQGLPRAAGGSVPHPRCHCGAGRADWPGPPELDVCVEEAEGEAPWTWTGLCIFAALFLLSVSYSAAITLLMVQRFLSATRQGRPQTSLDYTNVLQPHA

Question: For `Cn1nc(C(F)(F)F)cc1Nc1nncn1[C@H]1CCc2sc(NC(=O)[C@H]3C[C@H]3F)c(C(=O)NC[C@H]3C[C@@H]3F)c2C1` [Example 395, (5S)-2-[[(1R,2R)-2-fluorocyclopropanecarbonyl]amino]-N-[[(1R,2S)-2-fluorocyclopropyl]methyl]-5-[3-[[2-methyl-5-(trifluoromethyl)pyrazol-3-yl]amino]-1,2,4-triazol-4-yl]-4,5,6,7-tetrahydro-1-benzothiophene-3-carboxamide], which IC50 is on record?
Answer: < 1000 nM

Question: Which IC50 does the source give for `Cn1nc(C(F)(F)F)cc1Nc1nncn1[C@H]1CCc2sc(NC(=O)[C@H]3C[C@H]3F)c(C(=O)NC[C@H]3C[C@H]3F)c2C1` [Example 399, (5S)-2-[[(1R,2R)-2-fluorocyclopropanecarbonyl]amino]-N-[[(1R,2R)-2-fluorocyclopropyl]methyl]-5-[3-[[2-methyl-5-(trifluoromethyl)pyrazol-3-yl]amino]-1,2,4-triazol-4-yl]-4,5,6,7-tetrahydro-1-benzothiophene-3-carboxamide] here?
Answer: < 1000 nM

Question: With `Cn1nc(C(F)(F)F)cc1Nc1nncn1[C@H]1CCc2sc(NC(=O)[C@@H]3C[C@@H]3F)c(C(=O)NCC3CC3)c2C1` [Example 401] as the molecule, how does the IC50 read?
Answer: < 1000 nM

Question: For `Cn1nc(C(F)(F)F)cc1Nc1nncn1[C@H]1CCc2sc(NC(=O)[C@H]3C[C@H]3F)c(C(=O)N[C@H]3C[C@H](F)C3)c2C1` [Example 402, (5S)—N-(trans-3-fluorocyclobutyl)-2-[[(1R,2R)-2-fluorocyclopropanecarbonyl]amino]-5-[3-[[2-methyl-5-(trifluoromethyl)pyrazol-3-yl]amino]-1,2,4-triazol-4-yl]-4,5,6,7-tetrahydro-1-benzothiophene-3-carboxamide], which IC50 is on record?
Answer: < 1000 nM

Question: How did the IC50 turn out when `[2H]C([2H])([2H])n1nc(C(F)F)cc1Nc1nncn1[C@H]1CCc2sc(NC(=O)C3CC3)c(C(=O)NCC3CC3)c2C1` [Example 403, (5S)-2-(cyclopropanecarbonylamino)-N-(cyclopropylmethyl)-5-[3-[[5-(difluoromethyl)-2-(trideuteriomethyl)pyrazol-3-yl]amino]-1,2,4-triazol-4-yl]-4,5,6,7-tetrahydrobenzothiophene-3-carboxamide] was run?
Answer: < 1000 nM

Question: Which IC50 does the source give for `Cn1nc(C(F)F)cc1Nc1nncn1[C@H]1CCc2sc(NC(=O)[C@H]3CC34CC4)c(C(=O)NC[C@H]3C[C@H](F)C3)c2C1` [Example 404, (5S)-5-[3-[[5-(Difluoromethyl)-2-methylpyrazol-3-yl]amino]-1,2,4-triazol-4-yl]-N-[trans-(3-fluorocyclobutyl)methyl]-2-[[(2S)-spiro[2.2]pentane-2-carbonyl]amino]-4,5,6,7-tetrahydro-1-benzothiophene-3-carboxamide] here?
Answer: < 1000 nM

Question: Which IC50 does the source give for `Cn1nc(C(F)F)cc1Nc1nncn1[C@H]1CCc2sc(NC(=O)[C@H]3CC34CC4)c(C(=O)N[C@H]3C[C@H](F)C3)c2C1` [Example 405, (5S)-5-[3-[[5-(Difluoromethyl)-2-methylpyrazol-3-yl]amino]-1,2,4-triazol-4-yl]-N-(trans-3-fluorocyclobutyl)-2-[[(2S)-spiro[2.2]pentane-2-carbonyl]amino]-4,5,6,7-tetrahydro-1-benzothiophene-3-carboxamide] here?
Answer: < 1000 nM

Question: Which IC50 does the source give for `Cn1nc(C(F)F)cc1Nc1nncn1[C@H]1CCc2sc(NC(=O)[C@H]3CC34CC4)c(C(=O)NC3CC(F)(F)C3)c2C1` [Example 406, (5S)—N-(3,3-Difluorocyclobutyl)-5-[3-[[5-(difluoromethyl)-2-methylpyrazol-3-yl]amino]-1,2,4-triazol-4-yl]-2-[[(2S)-spiro[2.2]pentane-2-carbonyl]amino]-4,5,6,7-tetrahydro-1-benzothiophene-3-carboxamide] here?
Answer: < 1000 nM

Question: With `Cn1nc(C(F)F)cc1Nc1nncn1[C@H]1CCc2sc(NC(=O)[C@H]3CC34CC4)c(C(=O)NCC3CC(F)(F)C3)c2C1` [Example 407, (5S)—N-[(3,3-Difluorocyclobutyl)methyl]-5-[3-[[5-(difluoromethyl)-2-methylpyrazol-3-yl]amino]-1,2,4-triazol-4-yl]-2-[[(2S)-spiro[2,2]pentane-2-carbonyl]amino]-4,5,6,7-tetrahydro-1-benzothiophene-3-carboxamide] as the molecule, how does the IC50 read?
Answer: < 1000 nM
